Key:
[1] = test system: retinal ganglion cells (RGCs); assay: Ischemia/reperfusion (I/R) injury model in mice, Brn3a-positive RGC loss in flat-mounted retinas; type: in vivo, WT (C57BL/6J) mice
Procedure: To evaluate the effects of kynurenic acid on retinal conditions characterized by RGC death, e.g., glaucoma, wild-type (WT) mice were subjected to ischemia/reperfusion (I/R) injury, which induced RGC death. I/R injury was performed by first anesthetizing 12-week-old WT (C57BL/6J) mice with an intraperitoneal injection of ketamine/xylazine confirmed by the toe-pinch test. The mice were then placed on a heating pad throughout the procedure to maintain their body temperature. The right eye of each animal was cannulated into the anterior chamber with a 33-gauge needle connected to an elevated saline reservoir. The height of the reservoir was adjusted to achieve an intraocular pressure of 120 mmHg. After 60 min of this procedure, the needle was removed.
(§1) Treatment mice were given kynurenic acid intravenously or intravitreally, while control mice were subjected to the same I/R injury but not given kynurenic acid. Intravenous and intravitreal administration of kynurenic acid was performed immediately after I/R injury and again 24 hours post-injury. Kynurenic acid was injected intravenously via the tail vein into WT mice at a concentration of 2.5 mg/animal (25 mg/mL stock dissolved in 0.1 N NaOH, diluted in 0.1 M sodium phosphate buffer, and adjusted to pH 7). After 2 hours, kynurenic acid levels in the serum and retina were measured. Control animals received 0.1 M sodium phosphate buffer (pH 7) alone.
Kynurenic acid was injected intravitreally into separate WT mice at a concentration of either 5 or 10 μg/animal (5 mg/mL stock of kynurenic acid was dissolved in 0.1 N NaOH and diluted in 0.1 M sodium phosphate buffer adjusted to pH 7). Control animals were intravitreally injected with buffer alone. Intravitreal injection was performed using a 33-gauge needle attached to a Hamilton syringe (Hamilton Bonaduz AG, Bonaduz, Switzerland). The eye lids were carefully parted, and the 33-gauge needle was inserted at a 45° angle into the vitreous, just behind the limbus. One or two microliters of solution was injected in 1 μL increments with a 30 second gap between each injection. After injection, the needle was slowly withdrawn, and the injected area was treated with a topical antibiotic. Mice were anesthetized with a cocktail containing ketamine and xylazine prior to the intravitreal injections.
All mice were euthanized and retinas dissected 14 days after I/R injury, flat-mounted and immunostained for Brn3a (brain-specific homeobox/POU domain protein 3A), which is a marker for RGCs.

[2] = Kynurenic acid levels in serum and retina by LC-MS/MS after intravenous injection (blood retinal barrier permeability); type: in vivo, WT mice; conditions: intravenous 2.5 mg/animal, two hours after injection, relative to sodium phosphate buffer-injected control mice, *p<0.05
Procedure: as §1
To first determine whether kynurenic acid is permeable across the blood retinal barrier, kynurenic acid levels in the serum and retina of six WT mice intravenously injected with kynurenic acid (KYNA) were measured by LC=MS/MS two hours after injection.

O=C(O)c1cc(=O)c2ccccc2[nH]1 [kynurenic acid]
level of RGC loss, central retina ([1]; intravenous 2.5 mg/animal immediately after I/R injury and again 24 hours post-injury, Brn3a-positive RGCs per mm2, 14 days after I/R, I/R control 36.3%): 11.2% | level of RGC loss, peripheral retina ([1]; intravenous 2.5 mg/animal immediately after I/R injury and again 24 hours post-injury, Brn3a-positive RGCs per mm2, 14 days after I/R, I/R control 50%): 29.4% | level of RGC loss, central retina ([1]; intravitreal 5 μg immediately after I/R and 24 hours post-injury, 14 days after I/R, I/R control 66.1%): 32.4% | level of RGC loss, peripheral retina ([1]; intravitreal 5 μg immediately after I/R and 24 hours post-injury, 14 days after I/R, I/R control 70.9%): 46.1% | level of RGC loss, central retina ([1]; intravitreal 10 μg immediately after I/R and 24 hours post-injury, 14 days after I/R, I/R control 66.1%): 18.5% | level of RGC loss, peripheral retina ([1]; intravitreal 10 μg immediately after I/R and 24 hours post-injury, 14 days after I/R, I/R control 70.9%): 26.8% | kynurenic acid levels in retina [2]: increased significantly | kynurenic acid levels in serum [2]: increased significantly
